Source: patent US8063071B2 (GlaxoSmithKline, LLC, priority 2007, dated 2011)
Counter-ions that a name gives are not always drawn.

Assays:
[1] = target: T1, Recombinant human IKKβ (residues 1-737) (Homo sapiens, UniProt O14920); assay: IKK2 assay (TR-FRET); type: biochemical; settings: ATP 1 μM final, read-out: pIC50 against IKK2 (converted)
T1 construct: Recombinant human IKKβ (residues 1-737); GST (C); made in house
T1 sequence (O14920 1-737): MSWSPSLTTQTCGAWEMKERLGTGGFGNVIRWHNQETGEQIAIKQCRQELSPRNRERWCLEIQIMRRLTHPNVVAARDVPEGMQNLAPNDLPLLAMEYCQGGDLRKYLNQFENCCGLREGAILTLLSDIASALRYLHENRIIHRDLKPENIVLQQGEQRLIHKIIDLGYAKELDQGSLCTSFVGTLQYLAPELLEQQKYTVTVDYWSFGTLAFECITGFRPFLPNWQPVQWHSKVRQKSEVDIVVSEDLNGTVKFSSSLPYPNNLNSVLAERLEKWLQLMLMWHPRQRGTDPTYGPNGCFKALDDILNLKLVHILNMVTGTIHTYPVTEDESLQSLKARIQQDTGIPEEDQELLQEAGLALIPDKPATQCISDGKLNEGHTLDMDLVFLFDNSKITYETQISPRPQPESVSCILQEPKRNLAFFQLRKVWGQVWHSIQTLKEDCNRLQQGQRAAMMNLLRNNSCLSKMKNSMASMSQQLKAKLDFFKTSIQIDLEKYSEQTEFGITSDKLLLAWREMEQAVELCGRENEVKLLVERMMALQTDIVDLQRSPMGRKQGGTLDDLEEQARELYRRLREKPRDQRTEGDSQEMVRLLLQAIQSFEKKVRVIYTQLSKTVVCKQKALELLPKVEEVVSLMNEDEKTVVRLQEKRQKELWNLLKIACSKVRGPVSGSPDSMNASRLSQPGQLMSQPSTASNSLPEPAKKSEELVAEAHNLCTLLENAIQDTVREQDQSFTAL
Method in brief: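 Baculovirus-expressed C-terminal GST-tagged IKKβ (0.5-5 nM final) in HEPES pH 7.4, MgCl2, CHAPS, DTT, BSA with 1.7% DMSO; 25 nM GST-IB substrate and 1 μM ATP, 15 min at room temperature. EDTA stop; phospho-Ser32/36 detected by Eu-antibody/APC-anti-GST TR-FRET, 665/620 nm ratio.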

[2] = tested on: human monocyte stimulated cytokine production (TNF-α); assay: Monocyte assay (LPS-stimulated TNF-α production); type: cell-based; settings: for IC50: 24 h, 200 ng/mL LPS, TNF-α by ELISA; for inhibition at 0.3 µM: read-out: inhibition at 300 nM in the monocyte assay
Method in brief: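 Human CD14+ monocytes were purified from blood and plated at 1×10^6 cells/mL in RPMI 1640 with 10% FBS. Compound was added 30 min before stimulation with 200 ng/mL LPS (0.1% DMSO final), followed by 24 hrs at 37 C. Supernatant TNF-α was measured by ELISA, and viability by trypan blue exclusion.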

SMILES	IC50 [1]	IC50 [2]	inhibition at 0.3 µM [2]
CCS(=O)(=O)N1CCC(c2c[nH]c3c(C(N)=O)cc(-c4ccc(CN(C)C)cc4)cc23)CC1 [Example 146, 5-{4-[(dimethylamino)methyl]phenyl}-3-[1-(ethylsulfonyl)-4-piperidinyl]-1H-indole-7-carboxamide]	≤ 10 µM	> 1 µM	
CCS(=O)(=O)N1CCC(c2c[nH]c3c(C(N)=O)cc(-c4cncc(CNCC(F)(F)F)c4)cc23)CC1 [Example 63, 3-[1-(ethylsulfonyl)-4-piperidinyl]-5-(5-{[(2,2,2-trifluoroethyl)amino]methyl}-3-pyridinyl)-1H-indole-7-carboxamide]	≤ 10 µM		0 to 60%
CCS(=O)(=O)N1CCC(c2c[nH]c3c(C(N)=O)cc(-c4cccc(CNC5CCCC5)c4)cc23)CC1 [Example 15, 5-{3-[(cyclopentylamino)methyl]phenyl}-3-[1-(ethylsulfonyl)-4-piperidinyl]-1H-indole-7-carboxamide]	≤ 10 µM	> 1 µM	
CCS(=O)(=O)N1CCC(c2c[nH]c3c(C(N)=O)cc(-c4cnn(CCNC(C)C)c4)cc23)CC1 [Example 259, 3-[1-(ethylsulfonyl)-4-piperidinyl]-5-(1-{2-[(1-methylethyl)amino]ethyl}-1H-pyrazol-4-yl)-1H-indole-7-carboxamide trifluoroacetate]	≤ 10 µM	> 1 µM	
CCS(=O)(=O)N1CCC(c2c[nH]c3c(C(N)=O)cc(-c4csc(CN5CCCC5CN5CCCCC5)c4)cc23)CC1 (stereo not drawn) [Example 47, 3-[1-(ethylsulfonyl)-4-piperidinyl]-5-(5-{[2-(1-piperidinylmethyl)-1-pyrrolidinyl]methyl}-3-thienyl)-1H-indole-7-carboxamide]	≤ 10 µM		0 to 60%
CCS(=O)(=O)N1CCC(c2c[nH]c3c(C(N)=O)cc(-c4cc(CNCC(C)(C)C)ccc4F)cc23)CC1 [Example 336, 5-(5-{[(2,2-dimethylpropyl)amino]methyl}-2-fluorophenyl)-3-[1-(ethylsulfonyl)-4-piperidinyl]-1H-indole-7-carboxamide trifluoroacetate]	≤ 10 µM	≤ 1.5 µM	
CCS(=O)(=O)N1CCC(c2c[nH]c3c(C(N)=O)cc(-c4csc(CN5[C@H](C)CC[C@H]5C)c4)cc23)CC1 [Example 108, 5-(5-{[(2R,5R)-2,5-dimethyl-1-pyrrolidinyl]methyl}-3-thienyl)-3-[1-(ethylsulfonyl)-4-piperidinyl]-1H-indole-7-carboxamide trifluoroacetate]	≤ 10 µM	≤ 1.5 µM	
CCS(=O)(=O)N1CCC(c2c[nH]c3c(C(N)=O)cc(-c4ccc(CN5CCCCC5)cc4)cc23)CC1 [Example 27, 3-[1-(ethylsulfonyl)-4-piperidinyl]-5-[4-(1-piperidinylmethyl)phenyl]-1H-indole-7-carboxamide]	≤ 10 µM	≤ 1.5 µM	
CCS(=O)(=O)N1CCC(c2c[nH]c3c(C(N)=O)cc(-c4csc(CNCC(F)(F)F)n4)cc23)CC1 [Example 40, 3-[1-(ethylsulfonyl)-4-piperidinyl]-5-(2-{[(2,2,2-trifluoroethyl)amino]methyl}-1,3-thiazol-4-yl)-1H-indole-7-carboxamide trifluoroacetate]	≤ 10 µM		0 to 60%
CCS(=O)(=O)N1CCC(c2c[nH]c3c(C(N)=O)cc(-c4cc(F)cc(CNCc5cccs5)c4)cc23)CC1 [Example 325, 3-[1-(ethylsulfonyl)-4-piperidinyl]-5-(3-fluoro-5-{[(2-thienylmethyl)amino]methyl}phenyl)-1H-indole-7-carboxamide trifluoroacetate]	≤ 10 µM	≤ 1.5 µM	
CCS(=O)(=O)N1CCC(c2c[nH]c3c(C(N)=O)cc(-c4cccc(C(C)NC(C)C)c4)cc23)CC1 (stereo not drawn) [Example 293, 3-[1-(ethylsulfonyl)-4-piperidinyl]-5-(3-{1-[(1-methylethyl)amino]ethyl}phenyl)-1H-indole-7-carboxamide trifluoroacetate]	≤ 10 µM	≤ 1.5 µM	
CCS(=O)(=O)N1CCC(c2c[nH]c3c(C(N)=O)cc(-c4cccc(CN5CCCC5c5cccs5)c4)cc23)CC1 (stereo not drawn) [Example 11, 3-[1-(ethylsulfonyl)-4-piperidinyl]-5-(3-{[2-(2-thienyl)-1-pyrrolidinyl]methyl}phenyl)-1H-indole-7-carboxamide]	≤ 10 µM	≤ 1.5 µM	

Further lines, with some results ahead:

IC50 [1]	IC50 [2]	SMILES	inhibition at 0.3 µM [2]
≤ 10 µM	≤ 1.5 µM	CCS(=O)(=O)N1CCC(c2c[nH]c3c(C(N)=O)cc(-c4ccc(CCNC)cc4)cc23)CC1 [Example 125, 3-[1-(ethylsulfonyl)-4-piperidinyl]-5-{4-[2-(methylamino)ethyl]phenyl}-1H-indole-7-carboxamide]	
≤ 10 µM	≤ 1.5 µM	CCS(=O)(=O)N1CCC(c2c[nH]c3c(C(N)=O)cc(-c4csc(CN(C)C(C)C)c4)cc23)CC1 [Example 88, 3-[1-(ethylsulfonyl)-4-piperidinyl]-5-(5-{[methyl(1-methylethyl)amino]methyl}-3-thienyl)-1H-indole-7-carboxamide trifluoroacetate]	
≤ 10 µM	≤ 1.5 µM	CCS(=O)(=O)N1CCC(c2c[nH]c3c(C(N)=O)cc(-c4cccc(CN5CCCC5)c4)cc23)CC1 [Example 276, 3-[1-(ethylsulfonyl)-4-piperidinyl]-5-[3-(1-pyrrolidinylmethyl)phenyl]-1H-indole-7-carboxamide trifluoroacetate]	
≤ 10 µM	≤ 1.5 µM	CCS(=O)(=O)N1CCC(c2c[nH]c3c(C(N)=O)cc(-c4csc(CNC5CC5)c4)cc23)CC1 [Example 109, 5-{5-[(cyclopropylamino)methyl]-3-thienyl}-3-[1-(ethylsulfonyl)-4-piperidinyl]-1H-indole-7-carboxamide trifluoroacetate]	
≤ 10 µM	≤ 1.5 µM	CCS(=O)(=O)N1CCC(c2c[nH]c3c(C(N)=O)cc(-c4csc(CNC(C)C)c4)cc23)CC1 [Example 231, 3-[1-(ethylsulfonyl)-4-piperidinyl]-5-(5-{[(1-methylethyl)amino]methyl}-3-thienyl)-1H-indole-7-carboxamide trifluoroacetate]	
≤ 10 µM	≤ 1.5 µM	CCCC1CCCN1Cc1cc(-c2cc(C(N)=O)c3[nH]cc(C4CCN(S(=O)(=O)CC)CC4)c3c2)cs1 (stereo not drawn) [Example 89, 3-[1-(ethylsulfonyl)-4-piperidinyl]-5-{5-[(2-propyl-1-pyrrolidinyl)methyl]-3-thienyl}-1H-indole-7-carboxamide]	
≤ 10 µM	≤ 1.5 µM	CCS(=O)(=O)N1CCC(c2c[nH]c3c(C(N)=O)cc(-c4cncc(CNCCC#N)c4)cc23)CC1 [Example 62, 5-(5-{[(2-cyanoethyl)amino]methyl}-3-pyridinyl)-3-[1-(ethylsulfonyl)-4-piperidinyl]-1H-indole-7-carboxamide]	
≤ 10 µM	≤ 1.5 µM	CCS(=O)(=O)N1CCC(c2c[nH]c3c(C(N)=O)cc(-c4ccc(CN5CCOCC5)cc4)cc23)CC1 [Example 29, 3-[1-(ethylsulfonyl)-4-piperidinyl]-5-[4-(4-morpholinylmethyl)phenyl]-1H-indole-7-carboxamide]	
≤ 10 µM	≤ 1.5 µM	CCS(=O)(=O)N1CCC(c2c[nH]c3c(C(N)=O)cc(-c4coc(CNCC(C)C)c4)cc23)CC1 [Example 245, 3-[1-(ethylsulfonyl)-4-piperidinyl]-5-(5-{[(2-methylpropyl)amino]methyl}-3-furanyl)-1H-indole-7-carboxamide trifluoroacetate]	
